Results published in patent US20070191316A1, “VITAMIN D ANALOG - NEL, METHODS AND USES THEREOF” (WISCONSIN ALUMNI RESEARCH FOUNDATION, priority 2006, published 2007).
Entries after “also recorded” stand apart in the source; their conditions may differ.

Experiments:
vitamin D receptors = target: T1, vitamin D receptors (Homo sapiens, UniProt P11473); details: prior-art patents; cited from earlier work
T1 sequence (P11473 1-427): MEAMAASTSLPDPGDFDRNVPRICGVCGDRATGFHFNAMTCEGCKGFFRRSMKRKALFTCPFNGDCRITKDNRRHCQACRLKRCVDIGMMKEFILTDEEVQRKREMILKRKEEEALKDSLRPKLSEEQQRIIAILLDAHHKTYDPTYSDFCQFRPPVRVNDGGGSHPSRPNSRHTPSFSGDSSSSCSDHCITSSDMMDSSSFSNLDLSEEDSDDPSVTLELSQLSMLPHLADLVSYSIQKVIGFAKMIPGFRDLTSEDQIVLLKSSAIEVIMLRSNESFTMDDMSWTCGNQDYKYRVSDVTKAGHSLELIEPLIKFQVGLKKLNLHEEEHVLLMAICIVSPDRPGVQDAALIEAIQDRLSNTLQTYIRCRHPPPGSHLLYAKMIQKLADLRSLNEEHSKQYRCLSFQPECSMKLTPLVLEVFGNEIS

cell differentiation = details: prior art; cited from earlier work
[1] = cited from earlier work; for calcemic activity as compared to 1α,25-dihydroxyvitamin D3: prior-art patents
[2] = target: T2, full-length recombinant rat vitamin D receptor (Rattus norvegicus, UniProt P13053); test: Vitamin D receptor competitive binding with [3H]-1,25-(OH)2-D3; details: competition with [3H]-1,25-(OH)2-D3, recombinant rat receptor; FIG. 1
T2 construct: Full-length recombinant rat receptor was expressed in E. coli BL21(DE3) Codon Plus RIL cells; histidine tag (C); made in house; host or cells: E. coli BL21(DE3) Codon Plus RIL
T2 sequence (P13053 1-423): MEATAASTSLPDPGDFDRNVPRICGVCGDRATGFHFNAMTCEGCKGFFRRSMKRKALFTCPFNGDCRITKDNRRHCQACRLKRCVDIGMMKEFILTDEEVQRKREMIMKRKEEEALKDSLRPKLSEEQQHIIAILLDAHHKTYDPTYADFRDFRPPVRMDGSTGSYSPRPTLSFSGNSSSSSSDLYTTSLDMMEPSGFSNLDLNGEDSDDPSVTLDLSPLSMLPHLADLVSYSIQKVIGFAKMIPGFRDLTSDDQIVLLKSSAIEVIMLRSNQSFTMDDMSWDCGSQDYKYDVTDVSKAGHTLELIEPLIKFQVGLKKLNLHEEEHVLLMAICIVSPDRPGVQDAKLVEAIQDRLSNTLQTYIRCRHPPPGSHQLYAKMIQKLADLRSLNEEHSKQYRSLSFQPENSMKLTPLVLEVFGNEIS
Protocol: The first system was a nickel affinity resin that utilizes the C-terminal histidine tag on this protein. The protein that was eluted from this resin was further purified using ion exchange chromatography (S-Sepharose Fast Flow). Aliquots of the purified protein were quick frozen in liquid nitrogen and stored at −80° C. until use. For use in binding assays, the protein was diluted in TEDK50 (50 mM Tris, 1.5 mM EDTA, pH7.4, 5 mM DTT, 150 mM KCl) with 0.1% Chaps detergent. The receptor protein and ligand concentration was optimized such that no more than 20% of the added radiolabeled ligand was bound to the receptor.
The following day, 100 mcl of hydroxylapatite slurry (50%) was added to each tube and mixed at 10-minute intervals for 30 minutes. The hydroxylapaptite was collected by centrifugation and then washed three times with Tris-EDTA buffer (50 mM Tris, 1.5 mM EDTA, pH 7.4) containing 0.5% Titron X-100. After the final wash, the pellets were transferred to scintillation vials containing 4 ml of Biosafe II scintillation cocktail, mixed and placed in a scintillation counter. Total binding was determined from the tubes containing only radiolabeled ligand.

[3] = tested on: 24-hdyroxylase (24Ohase) gene promoter in ROS 17/2.8 (bone) cells; test: In vitro transcription assay (luciferase reporter); format: cell-based; details: Ros17/2.8 (bone) cells, 24-hydroxylase promoter-luciferase, 16 h; FIG. 5
Protocol: FIG. 5 is a graph comparing the in vitro transcription activity of NEL with that of 1,25(OH)2D3.
(C) In vitro Transcription Assay
Transcription activity was measured in ROS 17/2.8 (bone) cells that were stably transfected with a 24-hdyroxylase (24Ohase) gene promoter upstream of a luciferase reporter gene (Arbour et al., 1998). Cells were given a range of doses. Sixteen hours after dosing the cells were harvested and luciferase activities were measured using a luminometer. (RLU=relative luciferase units)

[4] = tested on: Human promyelocytic leukemia (HL60) cells; test: HL-60 differentiation (nitro blue tetrazolium reduction); format: cell-based; details: 4 days, NBT reduction, FIG. 4
Protocol: FIG. 4 is a graph comparing the percent HL-60 cell differentiation as a function of the concentration of NEL with that of 1,25(OH)2D3.
(B) HL-60 Differentiation
The study drugs were dissolved in ethanol and the concentrations determined using UV spectrophotometry. Serial dilutions were prepared so that a range of drug concentrations could be tested without changing the final concentration of ethanol (≦0.2%) present in the cell cultures.
Human promyelocytic leukemia (HL60) cells were grown in RPMI-1640 medium containing 10% fetal bovine serum. The cells were incubated at 37° C. in the presence of 5% CO2.
HL60 cells were plated at 1.2×10^5 cells/ml. Eighteen hours after plating, cells in duplicate were treated with drug. Four days later, the cells were harvested and a nitro blue tetrazolium reduction assay was performed (Collins et al., 1979; J. Exp. Med. 149:969-974). The percentage of differentiated cells was determined by counting a total of 200 cells and recording the number that contained intracellular black-blue formazan deposits. Verification of differentiation to monocytic cells was determined by measuring phagocytic activity (data not shown).

[5] = Intestinal calcium transport (everted gut sac method); format: in vivo, Sprague-Dawley rats; details: rats, four consecutive ip doses; equimolar or 27 times the dose of 1α,25-dihydroxyvitamin D3; FIG. 3
Source text: FIG. 3 is a bar graph comparing the intestinal calcium transport activity of NEL with that of 1,25(OH)2D3.
(§1) (D) Intestinal Calcium Transport and Bone Calcium Mobilization
(§2) Male, weanling Sprague-Dawley rats were placed on Diet 11 (0.47% Ca) diet+AEK for one week followed by Diet 11 (0.02% Ca)+AEK for 3 weeks. The rats were then switched to a diet containing 0.47% Ca for one week followed by two weeks on a diet containing 0.02% Ca. Dose administration began during the last week on 0.02% calcium diet. Four consecutive ip doses were given approximately 24 hours apart. Twenty-four hours after the last dose, blood was collected from the severed neck and the concentration of serum calcium determined as a measure of bone calcium mobilization. The first 10 cm of the intestine was also collected for intestinal calcium transport analysis using the everted gut sac method.

[6] = Bone calcium mobilization (serum calcium); format: in vivo, Sprague-Dawley rats; details: rats, four consecutive ip doses; equimolar or 27 times the dose of 1α,25-dihydroxyvitamin D3; FIG. 2
Source text: FIG. 2 is a bar graph comparing the bone calcium mobilization activity of NEL with that of 1,25(OH)2D3.
as §1, §2

[7] = PTH suppression and hypercalcemia; format: in vivo, Sprague-Dawley rats; details: normal rats; expected
Protocol: (E) PTH Suppression and Hypercalcemia
Adult, female Sprague-Dawley rats are obtained from Harlan (Madison, Wis.).
Upon receipt, the animals are identified by individual tail marks. Animals may then be housed in suspended, stainless steel, wire-bottom cages. Each cage may contain one animal. The animal rooms are maintained at a temperature of 68 to 72° F. and a relative humidity of 25 to 75%. The holding rooms are set to provide 12 hours of light per day. Water and a purified rodent diet (Suda et al., Purified Rodent Diet-Diet 11) containing […] 0.3% phosphorus and fat soluble vitamins A, D, E and K are provided ad libitum
Animals are randomly assigned to treatment groups (5 animals/group). All doses are administered intraperitoneally in 100 microliters of propylene glycol. […]
Twenty-four hours after the final dose, blood is collected from the tail artery and the concentration of bioactive serum PTH is measured using the rat BioActive Intact PTH ELISA Kit from Immutopics, Inc. (San Clemente, Calif.).
Twenty-four hours after the final dose, approximately 1 ml of blood is collected from the tail artery of each experimental animal. […] The level of calcium is determined by diluting the serum into 0.1% lanthum chloride and measuring the absorbance on an atomic absorption spectrophotometer (Perkin Elmer Model 3110, Shelton, Conn.).

Molecule: 1α-hydroxy-2-methylene-19-nor-bishomopregnacalciferol
- binding activity to vitamin D receptors (vitamin D receptors): relatively high
- cell differentiation activity (cell differentiation): relatively high
- calcemic activity as compared to 1α,25-dihydroxyvitamin D3 [1]: little if any

Molecule: C[C@H](CCCC(C)(C)O)[C@H]1CC[C@H]2/C(=C/C=C3C[C@@H](O)C[C@H](O)C3)CCC[C@]12C [1α,25-dihydroxy-19-nor-vitamin D3]
- cell differentiation activity (cell differentiation): high potency
- calcium mobilizing activity ([1]; prior art): very low

Molecule: 1α-hydroxy-2-methylene-19-nor-(20S)-homopregnacalciferol
- binding activity to vitamin D receptors (vitamin D receptors): relatively high
- cell differentiation activity (cell differentiation): relatively high
- calcemic activity as compared to 1α,25-dihydroxyvitamin D3 [1]: little if any

Molecule: C=C1[C@H](O)CC(=C/C=C2\CCC[C@]3(C)[C@@H](CC)CC[C@@H]23)C[C@H]1O [1α-hydroxy-2-methylene-19-nor-pregnacalciferol]
- binding activity to vitamin D receptors (vitamin D receptors): relatively high
- cell differentiation activity (cell differentiation): relatively high
- calcemic activity as compared to 1α,25-dihydroxyvitamin D3 [1]: little if any

Molecule: C=C1[C@H](O)CC(=C/C=C2\CCC[C@]3(C)[C@@H]([C@H](C)CCCC(C)O)CC[C@@H]23)C[C@H]1O (stereo partly drawn) [NEL, (20R, 25S)-2-Methylene-19,26-dinor-1α,25-dihydroxyvitamin D3]
- binding to the vitamin D receptor compared with 1α,25-dihydroxyvitamin D3 [2]: somewhat more active; also recorded: relatively high binding
- stimulating transcription of a reporter gene compared with 1α,25-dihydroxyvitamin D3 [3]: equally active
- inducing differentiation of HL-60 cells compared with 1α,25-dihydroxyvitamin D3 [4]: equally active
- intestinal calcium transport activity compared with 1α,25-dihydroxyvitamin D3 [5]: limited calcemic activity; also recorded: very low intestinal calcium transport activity
- bone calcium mobilization (serum calcium) compared with 1α,25-dihydroxyvitamin D3 [6]: limited calcemic activity; also recorded: very low ability to mobilize calcium from bone
- suppressing parathyroid hormone levels [7]: significant activity
